These results are taken from PubChem BioAssay (NCI).

Structures are written as SMILES.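 Protocol summary: plate cells (96-well), add compound at 5 concentrations, incubate 48 h, interpolate endpoints linearly. At the GI50, growth is halved. TGI: concentration producing complete growth inhibition.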

Common to all, as to assay: inhibition of tumour cell growth, NCI panel, 48 h
In test [1] the test system is SR leukemia.
Test [2] concerns MDA-MB-435.
The subject of test [3] is SNB-75 CNS.
The test system of test [4] is SNB-19 CNS.
Test [5] relates to IGROV1 ovarian.
The subject of test [6] is LOX IMVI melanoma.
Test [7] deals with HOP-62 NSCLC.
Test [8] deals with MDA-MB-231 breast.
Test [9] has as its system SK-MEL-2 melanoma.
Test [10] concerns NCI-H522 lung.

As for `O=C(Nc1ccc(Cl)cc1)N1CCN(c2ccc3nncn3n2)CC1`, the GI50 in test [1] is 24.5 µM; in test [2], 64.3 µM; in test [3] it was above 100 µM; in test [4], above 100 µM; in test [5], above 100 µM; in test [6], 92.4 µM. Besides, the GI50 in test [7] was above 100 µM; in test [8], 63.2 µM; in [9] it was 65.4 µM. Moreover, the TGI in test [1], in [2], in test [3], in test [4], in [5] and in test [6] was above 100 µM each time. Besides, the TGI in test [7], in [8] and in test [9] was above 100 µM throughout.
For the compound `CCN(CC)CCCNc1cc(OC)c(OC)c2cccnc12`, the GI50 in [1] was 1.22 µM; in test [2], 3.05 µM; in test [3] it was 3.05 µM; in [4], 13.1 µM; in test [10], 2.38 µM; in [6], 2.22 µM. The GI50 is 2.04 µM in test [7], 6.69 µM in test [8] and 14.5 µM in test [9]. Moreover, the TGI is above 100 µM in test [1]; 14.4 µM in test [2]; 14.8 µM in test [3]; 45 µM in test [4]; 10.5 µM in [10]; 34.4 µM in test [6]. Also, the TGI worked out at 21.4 µM in [7], 51.4 µM in test [8] and 42.8 µM in test [9].
Take `COc1cccc(-c2nn(-c3ccccc3)cc2-c2ccnc(NCCCNS(=O)(=O)c3ccc(C(F)(F)F)cc3)c2)c1`: the GI50 was 1.67 µM in [1]; 4.2 µM in test [2]; 5.1 µM in test [3]; 2.51 µM in [10]; 10.7 µM in test [5]; 4.86 µM in test [6]. Also, the GI50 in test [7] was 13.8 µM; in test [8], 4.98 µM; in [9], 2.84 µM. The TGI in test [1] is 4.84 µM; in test [2] it was above 100 µM; in test [3] it was above 100 µM; in [10], 23 µM; in test [5] it was above 100 µM; in [6], above 100 µM. Besides, the TGI in test [7] is above 100 µM; in test [8] it was above 100 µM; in test [9], 12.4 µM.
For `O=C(CC1Sc2ccccc2NC1=O)NNc1ccc(F)cc1` (stereo not drawn), the GI50 in test [1] was 14.4 µM; in test [2], 4.34 µM; in [3], 14.9 µM; in test [10], 9.39 µM; in test [5], 40.5 µM; in test [6], 4.51 µM. For the same compound, the GI50 was 66.3 µM in [7], 47.6 µM in test [8] and 72.9 µM in test [9]. The TGI in test [1], in test [2], in test [3], in [10], in [5] and in test [6] was above 100 µM in each case. In addition, the TGI in test [7], in test [8] and in test [9] was above 100 µM throughout.
As to `CCCCNCCCCCNc1cc(OC)cc2cccnc12`, the GI50 is 28.6 µM in test [1]; 19.8 µM in test [2]; 13.8 µM in test [4]; 17.5 µM in test [10]; 14.6 µM in [5]; 34.8 µM in [6]. The GI50 is 15.1 µM in test [7], 23.2 µM in test [8] and 19.6 µM in test [9]. In addition, the TGI in test [1] is above 100 µM; in [2] it was 41.4 µM; in test [4], 31.5 µM; in [10] it was 33.8 µM; in test [5], 29.1 µM; in test [6], above 100 µM. In addition, the TGI in [7] came to 30.1 µM; in test [8], 50.8 µM; in [9], 37.5 µM.
Take `COc1ccc(NC(=O)c2cccc(C3CCc4c(cc(OC)c(OC)c4OC)O3)c2)cc1` (stereo not drawn): the GI50 in test [1] was 0.419 µM; in test [2], 0.528 µM; in test [4], 4.16 µM; in [10], 2.29 µM; in test [5], 4.96 µM; in test [6], 3.94 µM. Also, the GI50 in [7] is 2.86 µM; in test [8], 4.13 µM; in test [9], 2.95 µM. For the same compound, the TGI was above 100 µM in test [1]; 9.92 µM in test [2]; above 100 µM in [4]; 7.37 µM in test [10]; above 100 µM in test [5]; above 100 µM in [6]. Further, the results for the TGI in [7], in test [8] and in test [9] were above 100 µM, above 100 µM and 8.79 µM, respectively.
